Source: PubChem BioAssay (NCI)
Where “and” joins values, the source holds several entries; their conditions need not be identical. Identical values can stand only once.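 Five compound concentrations were applied to cells in 96-well plates for 48 hours; endpoints were derived by simple linear interpolation of the resulting dose-response curve. Abbreviation: GI50, concentration required for 50% inhibition of growth. Definition used: TGI = concentration required for complete inhibition of growth.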

Tests used:
Test in all cases: growth of human tumour cells (NCI), 48 h
SNB-19 CNS = tested on: SNB-19 CNS
SK-OV-3 ovarian = tested on: SK-OV-3 ovarian
MOLT-4 leukemia = tested on: MOLT-4 leukemia
KM20L2 colon = tested on: KM20L2 colon
CAKI-1 renal = tested on: CAKI-1 renal
SNB-78 CNS = tested on: SNB-78 CNS
M19-MEL melanoma = tested on: M19-MEL melanoma
OVCAR-5 ovarian = tested on: OVCAR-5 ovarian
DMS 273 small cell lung = tested on: DMS 273 small cell lung
HL-60(TB) leukemia = tested on: HL-60(TB) leukemia
MDA-MB-231 breast = tested on: MDA-MB-231 breast

Structure (SMILES)	TGI (SNB-19 CNS)	TGI (SK-OV-3 ovarian)	TGI (MOLT-4 leukemia)	TGI (KM20L2 colon) [µM]	TGI (CAKI-1 renal)	TGI (SNB-78 CNS)	TGI (M19-MEL melanoma)	TGI (OVCAR-5 ovarian)	TGI (DMS 273 small cell lung)	TGI (HL-60(TB) leukemia)	GI50 (SNB-19 CNS) [µM]	GI50 (SK-OV-3 ovarian) [µM]	GI50 (CAKI-1 renal) [µM]	GI50 (SNB-78 CNS) [µM]	GI50 (M19-MEL melanoma) [µM]	GI50 (OVCAR-5 ovarian) [µM]	GI50 (DMS 273 small cell lung) [µM]	GI50 (HL-60(TB) leukemia) [µM]	TGI (MDA-MB-231 breast) [µM]
COc1cc([C@@H]2c3cc4c(cc3[C@@H](NC(=O)c3ccc(C#N)cc3)C3COC(=O)[C@@H]32)OCO4)cc(OC)c1O (stereo not given in full)	4.65 µM	2.87 µM	12.4 µM	4.51	13.2 µM	58.2 µM	15.6 µM	8.53 µM	10.3 µM	11.1 µM									
CN(C)c1nc(Oc2nc(N(C)C)nc(N(C)C)n2)nc(N(C)C)n1	> 100 µM	> 100 µM	> 100 µM	> 100	> 100 µM	> 100 µM	> 100 µM	> 100 µM	> 100 µM	> 100 µM									
COC(=O)CCC(NC(=S)N/N=C/c1cccs1)C(=O)OC (stereo not given)	> 100 µM	> 100 µM		> 100		> 100 µM	> 100 µM	> 100 µM	> 100 µM	> 100 µM									
Cc1cc([N+](=O)[O-])c(C)c2c1[nH]c1ccc(Cl)cc12	> 100 µM		> 100 µM		> 100 µM	> 100 µM	> 100 µM	> 100 µM	> 100 µM	> 100 µM									
O=c1cc(O)cc2n1CCC2	> 100 µM	> 100 µM	> 100 µM	> 100	> 100 µM	> 100 µM		> 100 µM	> 100 µM										
N#CNC(N)=NCc1ccccc1		> 100 µM	> 100 µM	> 100			> 100 µM	> 100 µM	> 100 µM	> 100 µM									
CCCCCCCC(=O)OCC(COC(=O)C(C)(C)C)OC(=O)Cc1ccccc1 (stereo not given)	> 100 µM	> 100 µM	> 100 µM	> 100	> 100 µM		> 100 µM	> 100 µM	> 100 µM	> 100 µM									
COc1cc2ccc3c4cc(OC)c(OC)cc4c[n+](C)c3c2cc1O	> 100 µM	> 100 µM	> 100 µM	> 100	> 100 µM	> 100 µM	> 100 µM	> 100 µM	> 100 µM	> 100 µM									
CCOC(=O)C1C(c2ccc(Cl)cc2Cl)NC(c2ccc(C)cc2)C(C(=O)OC)S1(=O)=O (stereo not given)	> 100 µM	> 100 µM	> 100 µM		> 100 µM	> 100 µM	> 100 µM	> 100 µM	> 100 µM	> 100 µM									
Cc1c2ccnc(C(N)=O)c2c(C)c2c1[nH]c1ccccc12	46.9 µM and 19.9 µM	23.9 µM and 34.3 µM	25.1 µM and 12.9 µM	40.5	9.58 µM and 26.4 µM	48.3 µM and > 100 µM	25.2 µM and 17.4 µM	37.4 µM and 33.3 µM	23.7 µM and 16.7 µM	38.3 µM and > 100 µM	4.45	14.1	4.82	6.28	4.7	6.41	3.5	4.36	
CCCCCCN(CCCCCC)C(=S)N/N=C(\C)c1ccccn1	3.92 µM	2.77 µM	5.79 µM	2.34	2.68 µM	2.34 µM		5.59 µM	3.92 µM	2.3 µM									2.76
O=[N+]([O-])c1cccc(C2=NN(c3ccccc3)C3c4cc(Br)ccc4OCC23)c1 (stereo not given)	> 100 µM	> 100 µM	> 100 µM	> 100		> 100 µM	> 100 µM	> 100 µM	> 100 µM	> 100 µM									
COc1cc(C)c(CC/C(C)=C/Cc2cc(O)ccc2O)c(C)c1C	> 25 µM	> 25 µM	> 25 µM	> 25	> 25 µM		> 25 µM		> 25 µM	> 25 µM									
CC1=CC2C3(C)C(C)(C(C)=CP3(=O)c3c(C(C)C)cc(C(C)C)cc3C(C)C)C1P2(=O)c1c(C(C)C)cc(C(C)C)cc1C(C)C (stereo not given)	15.8 µM	10.9 µM	5.78 µM		15.9 µM			6.31 µM		3.85 µM									3.87
O=c1oc2ccc3ccccc3c2cc1-c1cn2ccsc2n1	> 100 µM	> 100 µM	14.9 µM		59 µM			66.6 µM		51.7 µM									57.4
Cc1ccccc1-c1nc2c(N)nc(N)nc2nc1N	> 100 µM	> 100 µM	> 100 µM		> 100 µM			> 100 µM		> 100 µM									> 100
O=C(CCc1cc(O)cc(O)c1)NCCc1cc(OCc2ccccc2)cc(OCc2ccccc2)c1	7.17 µM	31.6 µM	22.7 µM		36.8 µM			39.5 µM		12.2 µM									39.3
O=c1ccc2ccc(S)cc2o1	> 100 µM	> 100 µM	> 100 µM		> 100 µM			> 100 µM		> 100 µM									> 100
CC(C)NC(=O)OCc1c(COC(=O)NC(C)C)n(C)c2c1ccc1sccc12	> 100 µM	> 100 µM	> 86.1 µM		50.1 µM			> 100 µM		> 100 µM									52
Cc1c(N2CCOCC2)nc2ccc(Cl)cc2c1-c1ccccc1	> 100 µM	> 100 µM	> 100 µM		> 100 µM	> 100 µM	> 100 µM		> 100 µM	> 100 µM									
Cc1c(C)n(-c2ccccc2)c2nc(S(C)=O)nc(S(C)=O)c12 (stereo not given)	31.3 µM	32.4 µM	5.57 µM		2.66 µM			28.9 µM		3.39 µM									17.3
C[C@]12CCC3[C@@H](CCC45OC4C(=O)CC[C@]35C)C1Cc1cnn(-c3ccc(F)cc3)c1N2 (stereo not given in full)	92.6 µM	> 100 µM	94.7 µM	62.6		79 µM	> 100 µM		38.9 µM	41.9 µM									
O=C(NCc1ccccc1)c1cc2ccccc2oc1=Nc1cccc(C(F)(F)F)c1	> 100 µM	> 100 µM	92.5 µM		> 100 µM			> 100 µM		49.9 µM									> 100
CC1=NN(C(=O)Cc2ccccc2)C(=O)/C1=C\c1ccc(O)cc1	> 100 µM	> 100 µM	> 100 µM	> 100	> 100 µM	> 100 µM	> 100 µM	> 100 µM		> 100 µM									
